Source: article PMC8931322 (Proceedings of the National Academy of Sciences of the …, 2022)
pEC50: −log10 of the molar value.

Assays:
Assay type in all cases: cell-based
AtSK11 = target: T1, AtSK11 (Arabidopsis thaliana, UniProt P43288); assay: CETSA melting curve, Western blot; settings: intact cells, 250 µM bikinin, 30 min
T1 sequence (P43288 2-405): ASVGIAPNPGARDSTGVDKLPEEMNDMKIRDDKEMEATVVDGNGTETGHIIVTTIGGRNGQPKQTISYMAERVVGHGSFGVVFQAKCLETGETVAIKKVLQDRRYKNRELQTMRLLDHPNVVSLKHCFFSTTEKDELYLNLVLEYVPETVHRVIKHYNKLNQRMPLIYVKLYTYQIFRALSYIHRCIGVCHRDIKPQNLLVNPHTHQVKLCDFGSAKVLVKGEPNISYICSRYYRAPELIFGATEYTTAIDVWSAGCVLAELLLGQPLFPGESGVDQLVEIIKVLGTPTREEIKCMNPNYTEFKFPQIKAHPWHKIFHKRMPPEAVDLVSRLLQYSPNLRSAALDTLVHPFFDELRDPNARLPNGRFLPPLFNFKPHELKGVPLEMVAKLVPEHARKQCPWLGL

AtSK22 = target: T2, AtSK22 (Arabidopsis thaliana, UniProt Q39012); assay: CETSA melting curve, Western blot; settings: intact cells, 250 µM bikinin, 30 min
T2 sequence (Q39012 2-407): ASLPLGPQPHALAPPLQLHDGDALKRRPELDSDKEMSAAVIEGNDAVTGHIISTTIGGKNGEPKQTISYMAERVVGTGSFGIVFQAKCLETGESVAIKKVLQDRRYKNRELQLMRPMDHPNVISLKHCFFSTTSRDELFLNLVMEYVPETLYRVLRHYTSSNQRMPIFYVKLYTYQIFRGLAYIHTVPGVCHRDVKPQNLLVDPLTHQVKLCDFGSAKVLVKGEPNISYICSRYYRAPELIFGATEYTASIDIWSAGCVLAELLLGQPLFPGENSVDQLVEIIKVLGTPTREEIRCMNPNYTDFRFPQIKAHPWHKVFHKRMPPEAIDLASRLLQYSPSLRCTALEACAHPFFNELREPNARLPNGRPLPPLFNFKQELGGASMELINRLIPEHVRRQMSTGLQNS

AtSK41 = target: T3, AtSK41 (Arabidopsis thaliana, UniProt Q39019); assay: CETSA melting curve, Western blot; settings: intact cells, 250 µM bikinin, 30 min
T3 sequence (Q39019 1-421): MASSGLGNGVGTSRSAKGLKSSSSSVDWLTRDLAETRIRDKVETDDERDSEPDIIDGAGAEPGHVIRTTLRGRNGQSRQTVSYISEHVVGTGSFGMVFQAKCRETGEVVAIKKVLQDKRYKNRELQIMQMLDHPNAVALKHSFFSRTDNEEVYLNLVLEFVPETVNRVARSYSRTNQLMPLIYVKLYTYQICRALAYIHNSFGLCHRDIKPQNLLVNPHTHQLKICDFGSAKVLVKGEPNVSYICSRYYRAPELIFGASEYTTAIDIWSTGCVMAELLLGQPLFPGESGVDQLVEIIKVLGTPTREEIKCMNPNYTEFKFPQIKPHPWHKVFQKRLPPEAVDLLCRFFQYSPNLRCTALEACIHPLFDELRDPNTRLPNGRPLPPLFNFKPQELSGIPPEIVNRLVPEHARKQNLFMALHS

AtSK12 = target: T4, AtSK12 (Arabidopsis thaliana, UniProt P43289); assay: isothermal dose-response CETSA
T4 sequence (P43289 2-409): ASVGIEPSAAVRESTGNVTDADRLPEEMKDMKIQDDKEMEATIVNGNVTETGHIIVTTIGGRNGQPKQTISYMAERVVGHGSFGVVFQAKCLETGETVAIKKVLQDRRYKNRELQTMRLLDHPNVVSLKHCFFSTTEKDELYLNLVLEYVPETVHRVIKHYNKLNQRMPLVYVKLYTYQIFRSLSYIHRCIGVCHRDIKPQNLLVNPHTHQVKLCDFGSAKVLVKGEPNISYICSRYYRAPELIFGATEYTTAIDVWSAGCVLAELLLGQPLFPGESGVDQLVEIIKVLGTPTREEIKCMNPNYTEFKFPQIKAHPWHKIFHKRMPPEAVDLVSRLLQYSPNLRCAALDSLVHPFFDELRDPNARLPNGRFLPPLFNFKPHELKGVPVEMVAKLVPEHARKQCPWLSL

BIN2/AtSK21 = target: T5, BIN2/AtSK21 (Arabidopsis thaliana, UniProt Q39011); assay: CETSA melting curve, Western blot; settings: intact cells, 250 µM bikinin, 30 min
T5 sequence (Q39011 1-380): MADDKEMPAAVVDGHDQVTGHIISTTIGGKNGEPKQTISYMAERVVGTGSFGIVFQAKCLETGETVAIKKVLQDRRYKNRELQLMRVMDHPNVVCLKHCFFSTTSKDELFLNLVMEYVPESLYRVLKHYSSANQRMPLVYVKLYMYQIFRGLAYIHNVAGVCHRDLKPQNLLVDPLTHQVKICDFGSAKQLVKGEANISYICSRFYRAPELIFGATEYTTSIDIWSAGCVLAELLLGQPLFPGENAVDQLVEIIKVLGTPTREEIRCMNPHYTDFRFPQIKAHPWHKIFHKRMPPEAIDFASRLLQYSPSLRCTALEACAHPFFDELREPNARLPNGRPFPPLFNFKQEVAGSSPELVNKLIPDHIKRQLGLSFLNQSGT

O=C(O)CCC(=O)Nc1ccc(Br)cn1 [bikinin]
Tm shift (AtSK11): AtSK11, AtSK12, AtSK13, BIN2/AtSK21, AtSK22, and AtSK41 showed Tm shifts
Tm shift (AtSK22): BIN2/AtSK21, AtSK22, and AtSK41 showed Tm shifts
Tm shift (AtSK41): BIN2/AtSK21, AtSK22, and AtSK41 showed Tm shifts
pEC50 (AtSK12): ~4.15
Tm shift (BIN2/AtSK21): BIN2/AtSK21, AtSK22, and AtSK41 showed Tm shifts
